Data: patent publication US11376307B2, “Compositions and methods of treating cancer with glycomimetic peptides” (SUSAVION BIOSCIENCES, INC., priority 2018, dated 2022)
Entries after “also recorded” stand apart in the source; their conditions may differ. Positions of bridges follow the written chain, without caps; N, C: chain ends. Chains are numbered I, II in the order given.

Columns and labels:
CD44 = biological target: T1, CD44 (Homo sapiens, UniProt P16070); test: Solid-phase binding assay, survey of other receptors
T1 construct: The extracellular domains of receptors, which were fused with the Fc domain of immunoglobulin IgG; purchased R&D Systems
T1 sequence (P16070 21-220 limits assumed): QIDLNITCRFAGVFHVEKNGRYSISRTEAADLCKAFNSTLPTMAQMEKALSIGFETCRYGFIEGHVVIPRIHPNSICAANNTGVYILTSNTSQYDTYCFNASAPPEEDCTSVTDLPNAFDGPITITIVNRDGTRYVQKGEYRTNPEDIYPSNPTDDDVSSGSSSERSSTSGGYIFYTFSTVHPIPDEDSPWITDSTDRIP
Protocol: (§1) Binding Assays Solid-phase binding assays were performed with streptavidin-, protein A/G-, or Nickel-coated microtiter plates (Pierce). His-tagged or Fc-fusion recombinant receptors (R&D Systems, Minneapolis, Minn.) were reconstituted in PBS. Sufficient receptors were added to wells to saturate the coating. His-tagged receptors were added to each well at a 5-fold excess over the stated capacity of the Ni coating to minimize non-specific binding of the peptide. Wells were washed three times with binding buffer (25 mM Tris HCl, pH 7.4, 150 mM NaCl, 0.05% Tween-20) to remove unbound receptor and 50 μL of 2 μM biotinylated peptide in binding buffer were added and allowed to incubate for 1 h. The wells were washed four times with binding buffer and then incubated with 50 μL of 1 μg/mL streptavidin conjugated with peroxidase (Sigma-Aldrich) for 1 h. The wells were washed five times with binding buffer and 50 μL of peroxidase substrate (1-Step™ Ultra TMB, Pierce) were added. After several minutes to allow color development, the reaction was stopped with 50 μL 1 M H3PO4 and absorbance was measured at 450 nm. Bound streptavidin was quantitated by the specific activity of peroxidase (absorbance/ng protein conjugate/min) under the conditions of the assay.
(§2) Solid-phase binding assays were performed with recombinant human receptors. Three variations of the binding assay were used in this study, all of which allowed the arms of the tetravalent peptide to have full flexibility. (i) Biotinylated peptide was bound in microtiter wells coated with streptavidin and incubated with recombinant human receptors. After extensive washing, the bound receptor was measured by peroxidase conjugated to a receptor-specific antibody. (ii) The extracellular domains of receptors, which were fused with the Fc domain of immunoglobulin IgG, were bound in wells coated with protein A/G. Biotinylated peptide was incubated with the receptors and, after extensive washing, bound peptide was measured with streptavidin conjugated with peroxidase. Or (iii), recombinant receptors with a poly-His tag were bound to Nickel-coated wells and incubated with biotinylated peptide. svL4 and sv6D contain His residues (FIGS. 1A, 1C) and can bind to the Ni coating, which was minimized by adding sufficient poly-His-tagged receptor to saturate the Ni coating.
(§3) Of the receptors we have assayed thus far, the peptides bound to those specific for GalNAc, which included CLEC4F, a GalNAc-binding receptor expressed by Kupffer cells that is also homologous to ASGPR-1 [50].

CLEC9A = biological target: T2, CLEC9A (Homo sapiens, UniProt Q6UXN8); test: as above
T2 construct: The extracellular domains of receptors, which were fused with the Fc domain of immunoglobulin IgG; purchased R&D Systems
T2 sequence (Q6UXN8 57-241 limits assumed): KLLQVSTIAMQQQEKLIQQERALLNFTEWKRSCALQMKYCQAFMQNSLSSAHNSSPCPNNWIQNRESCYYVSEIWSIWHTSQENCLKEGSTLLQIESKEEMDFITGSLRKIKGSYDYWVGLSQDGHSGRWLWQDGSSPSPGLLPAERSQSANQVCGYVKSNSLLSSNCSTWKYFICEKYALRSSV
Protocol: as §1, §2, §3

DC-SIGN = biological target: T3, DC-SIGN (Homo sapiens, UniProt Q9NNX6); test: as above
T3 construct: The extracellular domains of receptors, which were fused with the Fc domain of immunoglobulin IgG; purchased R&D Systems
T3 sequence (Q9NNX6 59-404 limits assumed): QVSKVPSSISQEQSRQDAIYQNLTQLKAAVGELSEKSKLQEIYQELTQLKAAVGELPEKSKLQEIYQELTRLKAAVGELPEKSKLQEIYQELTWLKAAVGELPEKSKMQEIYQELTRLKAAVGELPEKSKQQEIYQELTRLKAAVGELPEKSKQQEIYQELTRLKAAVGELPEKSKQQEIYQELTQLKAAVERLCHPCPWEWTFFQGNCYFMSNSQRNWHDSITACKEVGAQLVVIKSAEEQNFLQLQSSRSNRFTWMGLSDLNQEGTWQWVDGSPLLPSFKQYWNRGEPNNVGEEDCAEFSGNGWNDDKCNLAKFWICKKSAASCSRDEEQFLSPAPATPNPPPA
Protocol: as §1, §2, §3

IL-4R = biological target: T4, IL-4R (Homo sapiens, UniProt P24394); test: as above
T4 construct: The extracellular domains of receptors, which were fused with the Fc domain of immunoglobulin IgG; purchased R&D Systems
T4 sequence (P24394 26-232 limits assumed): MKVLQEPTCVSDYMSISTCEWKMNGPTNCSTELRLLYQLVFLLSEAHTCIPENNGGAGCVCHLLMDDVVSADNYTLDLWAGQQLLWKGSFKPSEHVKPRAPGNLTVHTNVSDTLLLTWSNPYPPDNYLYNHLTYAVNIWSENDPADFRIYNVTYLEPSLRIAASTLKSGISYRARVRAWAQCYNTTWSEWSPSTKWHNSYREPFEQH
Protocol: as §1, §2, §3

Siglec-1 = biological target: T5, Siglec-1 (Homo sapiens, UniProt Q9BZZ2); test: as above
T5 construct: The extracellular domains of receptors, which were fused with the Fc domain of immunoglobulin IgG; purchased R&D Systems
T5 sequence (Q9BZZ2 20-1641 limits assumed): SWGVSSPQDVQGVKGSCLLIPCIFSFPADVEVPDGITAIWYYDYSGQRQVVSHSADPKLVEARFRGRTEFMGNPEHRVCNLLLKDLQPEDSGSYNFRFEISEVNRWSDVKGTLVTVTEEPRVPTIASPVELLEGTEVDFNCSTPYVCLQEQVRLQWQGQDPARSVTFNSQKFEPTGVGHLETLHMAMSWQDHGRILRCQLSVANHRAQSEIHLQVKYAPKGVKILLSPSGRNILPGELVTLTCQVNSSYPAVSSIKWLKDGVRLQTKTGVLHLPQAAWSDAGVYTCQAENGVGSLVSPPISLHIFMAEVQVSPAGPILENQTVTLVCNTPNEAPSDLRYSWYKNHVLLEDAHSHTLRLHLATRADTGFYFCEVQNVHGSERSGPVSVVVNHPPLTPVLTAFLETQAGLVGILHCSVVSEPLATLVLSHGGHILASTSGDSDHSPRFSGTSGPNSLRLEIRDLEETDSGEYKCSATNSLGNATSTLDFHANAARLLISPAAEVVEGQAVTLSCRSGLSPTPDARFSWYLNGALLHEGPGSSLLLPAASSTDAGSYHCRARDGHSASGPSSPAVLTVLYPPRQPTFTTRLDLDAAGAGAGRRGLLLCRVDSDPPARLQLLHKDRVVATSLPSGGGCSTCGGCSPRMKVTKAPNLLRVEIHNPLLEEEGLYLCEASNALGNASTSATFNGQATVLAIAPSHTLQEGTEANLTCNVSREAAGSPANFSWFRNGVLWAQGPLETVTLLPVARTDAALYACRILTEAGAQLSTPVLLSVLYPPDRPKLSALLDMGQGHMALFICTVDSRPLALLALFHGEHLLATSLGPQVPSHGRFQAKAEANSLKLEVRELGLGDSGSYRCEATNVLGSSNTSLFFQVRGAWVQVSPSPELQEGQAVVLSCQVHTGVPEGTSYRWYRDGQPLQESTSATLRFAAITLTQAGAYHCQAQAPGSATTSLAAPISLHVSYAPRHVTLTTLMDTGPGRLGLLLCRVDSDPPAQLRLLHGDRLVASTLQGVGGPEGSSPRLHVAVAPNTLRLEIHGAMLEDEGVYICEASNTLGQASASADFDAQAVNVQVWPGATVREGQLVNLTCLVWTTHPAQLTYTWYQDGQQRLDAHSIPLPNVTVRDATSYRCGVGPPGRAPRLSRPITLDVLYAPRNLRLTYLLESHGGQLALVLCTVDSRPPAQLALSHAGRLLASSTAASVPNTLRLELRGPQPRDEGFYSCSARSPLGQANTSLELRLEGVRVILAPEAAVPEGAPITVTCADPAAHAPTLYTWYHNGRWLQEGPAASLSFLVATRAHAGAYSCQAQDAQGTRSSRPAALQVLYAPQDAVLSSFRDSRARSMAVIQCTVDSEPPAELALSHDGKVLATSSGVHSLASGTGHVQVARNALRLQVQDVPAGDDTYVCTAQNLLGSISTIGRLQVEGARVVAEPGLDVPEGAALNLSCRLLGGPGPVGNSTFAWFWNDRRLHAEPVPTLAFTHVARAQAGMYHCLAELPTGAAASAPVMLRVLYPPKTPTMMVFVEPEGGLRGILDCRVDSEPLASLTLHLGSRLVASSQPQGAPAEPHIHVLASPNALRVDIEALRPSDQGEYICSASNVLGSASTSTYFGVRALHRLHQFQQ
Protocol: as §1, §2, §3

[1] = Antigenicity assay of mouse sera; set-up: species or system mice; settings: alternate-day injections for 3 months, 1 nmol/g
Protocol: FIG. 10. Test for antigenicity of svL4 and sv6D. Anti-sera were generated in rabbits against KLH-conjugates of the sequences of svL4 or sv6D and diluted 1:10. Mouse sera were collected after alternate-day injections of svL4 over 3 months, diluted 1:1 with PBS and added to protein-A/G-coated wells. Biotinylated svL4 or sv6D was added to wells and bound peptide was detected with a streptavidin-peroxidase conjugate. The figure includes average values for sera from 8 treated mice in each group assayed separately.
Antigenicity Assay The sequence of one arm of svL4 or sv6D was conjugated to keyhole limpet hemocyanin (KLH) and injected into rabbits at two-week intervals (total of 3 injections) (New England Peptide, Inc., Gardner, Mass.). Two weeks after the final injection, sera were prepared. Mice were injected with a peptide every other day over a period of 3 months (total ˜45 injections), blood was then collected by cardiac puncture and sera were prepared. Rabbit serum was diluted 1:10, whereas mouse serum was diluted 1:1 or 1:5 with PBS containing 0.05% Tween-20 (PBST). Sera were incubated in microtiter wells coated with protein A/G (Pierce) for 90 min. The wells were washed three times with PBST, and then incubated with 50 μL of 1 μM biotinylated svL4 or sv6D for 1 h. […]

[2] = system: monocytes in the peritoneal cavity; test: Response of peritoneal monocytes in RAG−/− mice; format: in vivo; settings: mice lacking B and T cells
Protocol: To determine whether the target(s) for svL4 is located on lymphocytes, with subsequent cross-talk signaling to achieve activation of monocytes, an experiment was performed in which svL4 was injected into RAG^−/− mice, which lack activity of rag, the recombination activation gene. The ability to perform recombination to generate antigen-specific antibodies by V(D)J recombination is required for B and T cell precursors to produce functional antigen receptors on their surface, and without a functional rag gene these cells undergo apoptosis.

Row | Substance | Binding to CD44 (CD44) | Binding to CLEC9A (CLEC9A) | Binding to DC-SIGN (DC-SIGN) | Binding to IL-4R (IL-4R) | Binding to Siglec-1 (Siglec-1) | Antibodies that bind the peptides in mouse sera (antigenicity) [1] | Response of peritoneal monocytes [2]
1 | I: H-NQHTPRGGGSKK-NH2 / II: H-NQHTPRGGGSK / III: H-NQHTPRGGGS / IV: H-NQHTPRGGGS (amide I:11-IV:C, I:12-II:C, II:11-III:C) [sv6D] | not detected | did not bind significantly | did not bind significantly | not detected | did not bind significantly | negative; also recorded: not antigenic | 
2 | I: H-VQATQSNQHTPRGGGSKK-NH2 / II: H-VQATQSNQHTPRGGGSK / III: H-VQATQSNQHTPRGGGS / IV: H-VQATQSNQHTPRGGGS (amide I:17-IV:C, I:18-II:C, II:17-III:C) [svL4] | not detected | did not bind significantly | did not bind significantly | not detected | did not bind significantly | negative | essentially the same as that in C57BL/6 mice
